From article PMC5218480 (PLoS ONE, 2017)

Test system: MV-4-11 cells
Test: Gene expression microarray analysis (Affymetrix PrimeView) and GSEA
Assay type: cell-based, human
Design: RFU PODN (11730768_x_at) / Fold change /veh PODN (11730768_x_at) / RFU LINC00158 (11744669_a_at) / Fold change /veh LINC00158 (11744669_a_at) / RFU DUSP10 (11751237_a_at) / Fold change /veh DUSP10 (11751237_a_at) / RFU ID3 (11757404_x_at) / Fold change /veh ID3 (11757404_x_at) / RFU PLEKHG5 (11737974_s_at) / Fold change /veh PLEKHG5 (11737974_s_at) / RFU LRRC4B (11730491_at) / Fold change /veh LRRC4B (11730491_at) / RFU GIMAP4 (11747438_a_at) / Fold change /veh GIMAP4 (11747438_a_at) / RFU KRT8 (11758183_x_at) / Fold change /veh KRT8 (11758183_x_at) / RFU CNN1 (11734310_a_at) / Fold change /veh CNN1 (11734310_a_at) / RFU VPS37D (11726825_at) / Fold change /veh VPS37D (11726825_at) / RFU C10orf10 (11716522_x_at) / Fold change /veh C10orf10 (11716522_x_at) / RFU KIR2DL2 /// KIR2DL4 /// KIR2DL5A /// KIR2DL5B /// KIR2DS1 /// KIR2DS2 /// KIR2DS3 /// KIR2DS4 /// KIR3DL3 /// KIR3DL3 /// KIR3DS1 (11738374_at) / Fold change /veh KIR2DL2 /// KIR2DL4 /// KIR2DL5A /// KIR2DL5B /// KIR2DS1 /// KIR2DS2 /// KIR2DS3 /// KIR2DS4 /// KIR3DL3 /// KIR3DL3 /// KIR3DS1 (11738374_at) / RFU C1QL1 (11718748_at) / Fold change /veh C1QL1 (11718748_at) / RFU TMPRSS4 (11747572_a_at) / Fold change /veh TMPRSS4 (11747572_a_at) / RFU HAMP (11756126_x_at) / Fold change /veh HAMP (11756126_x_at) / RFU RNFT2 (11725882_a_at) / Fold change /veh RNFT2 (11725882_a_at) / RFU NR4A2 (11747474_a_at) / Fold change /veh NR4A2 (11747474_a_at) / RFU ABCC12 (11746883_a_at) / Fold change /veh ABCC12 (11746883_a_at) / RFU TMEM136 (11760407_x_at) / Fold change /veh TMEM136 (11760407_x_at) / RFU CLDN22 /// WWC2 (11732394_at) / Fold change /veh CLDN22 /// WWC2 (11732394_at) / RFU HLA-DPB1 (11760878_x_at) / Fold change /veh HLA-DPB1 (11760878_x_at) / RFU SPINT1 (11716480_a_at) / Fold change /veh SPINT1 (11716480_a_at) / RFU GAP43 (11754022_s_at) / Fold change /veh GAP43 (11754022_s_at) / RFU A4GNT (11735810_at) / Fold change /veh A4GNT (11735810_at) / RFU PRB3 (11715151_x_at) / Fold change /veh PRB3 (11715151_x_at) / RFU TUBB4B (11761932_at) / Fold change /veh TUBB4B (11761932_at) / RFU CAPN14 (11732068_a_at) / Fold change /veh CAPN14 (11732068_a_at) / RFU TMCC2 (11721928_a_at) / Fold change /veh TMCC2 (11721928_a_at) / RFU IRGQ (11745062_a_at) / Fold change /veh IRGQ (11745062_a_at) / RFU FAM174B (11720279_a_at) / Fold change /veh FAM174B (11720279_a_at) / RFU TMPRSS4 (11748680_a_at) / Fold change /veh TMPRSS4 (11748680_a_at) / RFU FAM212B (11763350_a_at) / Fold change /veh FAM212B (11763350_a_at) / RFU PLEKHG5 (11743358_a_at) / Fold change /veh PLEKHG5 (11743358_a_at) / RFU ZSCAN30 (11745921_a_at) / Fold change /veh ZSCAN30 (11745921_a_at) / RFU CMKLR1 (11741424_a_at) / Fold change /veh CMKLR1 (11741424_a_at) / RFU LOC101060620 /// MAPK8IP1 (11723275_at) / Fold change /veh LOC101060620 /// MAPK8IP1 (11723275_at) / RFU SPTSSB (11747773_x_at) / Fold change /veh SPTSSB (11747773_x_at) / RFU PRSS12 (11739890_at) / Fold change /veh PRSS12 (11739890_at) / RFU BIN1 (11741810_x_at) / Fold change /veh BIN1 (11741810_x_at) / RFU WNT11 (11732464_a_at) / Fold change /veh WNT11 (11732464_a_at) / RFU C10orf10 (11716521_a_at) / Fold change /veh C10orf10 (11716521_a_at) / RFU C5orf56 (11738089_at) / Fold change /veh C5orf56 (11738089_at) / RFU CYB561 (11721691_x_at) / Fold change /veh CYB561 (11721691_x_at) / RFU ANKRD19P (11752326_a_at) / Fold change /veh ANKRD19P (11752326_a_at) / RFU OR2T12 /// OR2T33 /// OR2T8 (11738714_s_at) / Fold change /veh OR2T12 /// OR2T33 /// OR2T8 (11738714_s_at) / RFU VCAN (11748164_a_at) / Fold change /veh VCAN (11748164_a_at) / RFU JSRP1 (11732532_at) / Fold change /veh JSRP1 (11732532_at) / RFU KRTAP10-11 (11738290_x_at) / Fold change /veh KRTAP10-11 (11738290_x_at) / RFU MYO3A (11730013_a_at) / Fold change /veh MYO3A (11730013_a_at) / RFU EBF3 (11725865_a_at) / Fold change /veh EBF3 (11725865_a_at) / RFU CAMK2N1 (11719241_x_at) / Fold change /veh CAMK2N1 (11719241_x_at) / RFU C5orf56 (11738088_a_at) / Fold change /veh C5orf56 (11738088_a_at) / RFU OLFML3 (11715873_a_at) / Fold change /veh OLFML3 (11715873_a_at) / RFU LOC100653217 /// NTM (11731650_a_at) / Fold change /veh LOC100653217 /// NTM (11731650_a_at) / RFU MAPK11 (11762145_a_at) / Fold change /veh MAPK11 (11762145_a_at) / RFU FIZ1 (11724087_x_at) / Fold change /veh FIZ1 (11724087_x_at) / RFU OASL (11726364_x_at) / Fold change /veh OASL (11726364_x_at) / RFU SOX15 (11748057_x_at) / Fold change /veh SOX15 (11748057_x_at) / RFU CD79A (11719716_a_at) / Fold change /veh CD79A (11719716_a_at) / RFU HIST1H1D (11736915_at) / Fold change /veh HIST1H1D (11736915_at) / RFU CASKIN2 (11723855_a_at) / Fold change /veh CASKIN2 (11723855_a_at) / RFU LOC730098 (11760151_x_at) / Fold change /veh LOC730098 (11760151_x_at) / RFU OR4N2 (11742367_at) / Fold change /veh OR4N2 (11742367_at) / RFU PRRT2 (11749266_a_at) / Fold change /veh PRRT2 (11749266_a_at) / RFU SNX32 (11753110_a_at) / Fold change /veh SNX32 (11753110_a_at) / RFU CDHR5 (11726645_a_at) / Fold change /veh CDHR5 (11726645_a_at) / RFU RCAN1 (11760418_a_at) / Fold change /veh RCAN1 (11760418_a_at) / RFU FAM167A (11723789_a_at) / Fold change /veh FAM167A (11723789_a_at) / RFU FAM26E (11764081_at) / Fold change /veh FAM26E (11764081_at) / RFU ISYNA1 (11749810_s_at) / Fold change /veh ISYNA1 (11749810_s_at) / RFU ACY1 (11761880_at) / Fold change /veh ACY1 (11761880_at) / RFU 11764098_at / Fold change /veh 11764098_at / RFU SAMD14 (11745864_x_at) / Fold change /veh SAMD14 (11745864_x_at) / RFU NPB (11741838_a_at) / Fold change /veh NPB (11741838_a_at) / RFU TMPRSS6 (11731388_a_at) / Fold change /veh TMPRSS6 (11731388_a_at) / RFU KRTAP10-2 (11738614_at) / Fold change /veh KRTAP10-2 (11738614_at) / RFU ARHGAP8 /// PRR5-ARHGAP8 (11727945_x_at) / Fold change /veh ARHGAP8 /// PRR5-ARHGAP8 (11727945_x_at) / RFU KRTAP5-7 /// NADSYN1 (11734609_at) / Fold change /veh KRTAP5-7 /// NADSYN1 (11734609_at) / RFU RASL12 (11751679_a_at) / Fold change /veh RASL12 (11751679_a_at) / RFU CDKN2B (11736163_a_at) / Fold change /veh CDKN2B (11736163_a_at) / RFU PRF1 (11729649_at) / Fold change /veh PRF1 (11729649_at) / RFU, ZNF638 /// ZNF638-IT1 / Fold change vs veh, ZNF638 /// ZNF638-IT1 / RFU, PANK3 / Fold change vs veh, PANK3 / RFU, SH3YL1 / Fold change vs veh, SH3YL1 / RFU, ZEB2 / Fold change vs veh, ZEB2 / RFU, NRIP1 / Fold change vs veh, NRIP1 / RFU, PTTG1IP / Fold change vs veh, PTTG1IP / RFU, CAPN2 / Fold change vs veh, CAPN2 / RFU, MED14 / Fold change vs veh, MED14 / RFU, SNORA58 / Fold change vs veh, SNORA58 / RFU, C1orf63 / Fold change vs veh, C1orf63 / RFU, LRRFIP1 / Fold change vs veh, LRRFIP1 / RFU, NDUFAF7 / Fold change vs veh, NDUFAF7 / RFU, SLC12A2 / Fold change vs veh, SLC12A2 / RFU, IBTK / Fold change vs veh, IBTK / RFU, ESF1 / Fold change vs veh, ESF1 / Fold change vs veh, TMEM50B / RFU, TAOK1 / Fold change vs veh, TAOK1 / RFU, ACBD3 / Fold change vs veh, ACBD3 / RFU, TMA16 / Fold change vs veh, TMA16 / RFU, RWDD3 / Fold change vs veh, RWDD3 / RFU, BCAT1 / Fold change vs veh, BCAT1 / RFU, EDEM3 / Fold change vs veh, EDEM3 / RFU, TMEM33 / Fold change vs veh, TMEM33 / RFU, WDR75 / Fold change vs veh, WDR75 / RFU, AHCTF1 / Fold change vs veh, AHCTF1 / RFU, TFRC / Fold change vs veh, TFRC / RFU, ZDHHC17 / Fold change vs veh, ZDHHC17 / RFU, NOM1 / Fold change vs veh, NOM1 / RFU, ARL8B / Fold change vs veh, ARL8B / RFU, ZBTB11 / Fold change vs veh, ZBTB11 / RFU, TAMM41 / Fold change vs veh, TAMM41 / RFU, KIAA1704 /// LOC100996395 / Fold change vs veh, KIAA1704 /// LOC100996395 / RFU, ING1 / Fold change vs veh, ING1 / RFU, TRMT61B / Fold change vs veh, TRMT61B / RFU, FUBP3 / Fold change vs veh, FUBP3 / RFU, TP53 / Fold change vs veh, TP53 / RFU, TNKS2 / Fold change vs veh, TNKS2 / RFU, ZFP14 / Fold change vs veh, ZFP14 / RFU, ACTR2 / Fold change vs veh, ACTR2 / RFU, PPP3R1 / Fold change vs veh, PPP3R1 / RFU, PIK3R1 / Fold change vs veh, PIK3R1 / RFU, HNRNPA1 / Fold change vs veh, HNRNPA1 / RFU, RNF170 / Fold change vs veh, RNF170 / RFU, ZNF28 / Fold change vs veh, ZNF28 / RFU, RNGTT / Fold change vs veh, RNGTT / RFU, OGT / Fold change vs veh, OGT / RFU, BRD1 / Fold change vs veh, BRD1 / RFU, MARS / Fold change vs veh, MARS / RFU, ZNF655 / Fold change vs veh, ZNF655 / RFU, FAHD1 / Fold change vs veh, FAHD1 / RFU, BDP1 / Fold change vs veh, BDP1 / RFU, LRRCC1 / Fold change vs veh, LRRCC1 / RFU, ARID1A / Fold change vs veh, ARID1A / RFU, ZNF146 / Fold change vs veh, ZNF146 / RFU, ZNF330 / Fold change vs veh, ZNF330 / RFU, GPN3 / Fold change vs veh, GPN3 / RFU, C9orf123 / Fold change vs veh, C9orf123 / RFU, N4BP2L2 / Fold change vs veh, N4BP2L2 / RFU, ARFIP1 / Fold change vs veh, ARFIP1 / RFU, FAM179B / Fold change vs veh, FAM179B / RFU, BCL10 / Fold change vs veh, BCL10 / RFU, UHRF1BP1L / Fold change vs veh, UHRF1BP1L / RFU, BET1 / Fold change vs veh, BET1 / RFU, CNOT2 / Fold change vs veh, CNOT2 / RFU, ZNF268 / Fold change vs veh, ZNF268 / Fold change vs veh, ZNF507 / RFU, DGCR2 / Fold change vs veh, DGCR2 / RFU, WDSUB1 / Fold change vs veh, WDSUB1 / Fold change vs veh, HSP90B1 /// MIR3652 / RFU, ADSS / Fold change vs veh, ADSS / RFU, GK / Fold change vs veh, GK / RFU, ZNF148 / Fold change vs veh, ZNF148 / RFU, TAF9 / Fold change vs veh, TAF9 / RFU, SLC1A5 / Fold change vs veh, SLC1A5 / RFU, SLMO2 / Fold change vs veh, SLMO2 / RFU, ABCC4 / Fold change vs veh, ABCC4 / RFU, LOC101060439 /// RAP1B / Fold change vs veh, LOC101060439 /// RAP1B / RFU, RFX7 / Fold change vs veh, RFX7 / RFU, GTPBP10 / Fold change vs veh, GTPBP10 / RFU, CNEP1R1 / Fold change vs veh, CNEP1R1 / RFU, BIVM-ERCC5 /// ERCC5 / Fold change vs veh, BIVM-ERCC5 /// ERCC5 / RFU, ILF3 / Fold change vs veh, ILF3 / RFU 11762660_at / Fold change /veh 11762660_at / RFU VCAN (11757783_s_at) / Fold change /veh VCAN (11757783_s_at) / RFU DDX43 (11728927_at) / Fold change /veh DDX43 (11728927_at) / RFU KRT8 (11758188_x_at) / Fold change /veh KRT8 (11758188_x_at) / RFU NKD1 (11759106_at) / Fold change /veh NKD1 (11759106_at) / RFU SRD5A1 (11742802_a_at) / Fold change /veh SRD5A1 (11742802_a_at) / RFU TPSAB1 /// TPSB2 (11721975_s_at) / Fold change /veh TPSAB1 /// TPSB2 (11721975_s_at) / RFU GSTM3 (11746129_a_at) / Fold change /veh GSTM3 (11746129_a_at) / RFU IL23R (11737362_x_at) / Fold change /veh IL23R (11737362_x_at) / RFU TMEM51 (11727254_a_at) / Fold change /veh TMEM51 (11727254_a_at) / RFU PIWIL2 (11732686_x_at) / Fold change /veh PIWIL2 (11732686_x_at) / RFU ORM1 (11744905_x_at) / Fold change /veh ORM1 (11744905_x_at) / RFU CCDC152 (11743942_at) / Fold change /veh CCDC152 (11743942_at) / RFU ECM1 (11717891_a_at) / Fold change /veh ECM1 (11717891_a_at) / RFU IL23R (11748794_a_at) / Fold change /veh IL23R (11748794_a_at) / RFU TNFAIP8L3 (11732012_x_at) / Fold change /veh TNFAIP8L3 (11732012_x_at) / RFU MBOAT4 (11741988_at) / Fold change /veh MBOAT4 (11741988_at) / RFU 11764193_at / Fold change /veh 11764193_at / RFU TMEM53 (11763286_at) / Fold change /veh TMEM53 (11763286_at) / RFU MAGEB2 (11727129_at) / Fold change /veh MAGEB2 (11727129_at) / RFU TMEM200A (11744735_a_at) / Fold change /veh TMEM200A (11744735_a_at) / RFU CCDC152 (11751479_a_at) / Fold change /veh CCDC152 (11751479_a_at) / RFU FAM211A (11726209_a_at) / Fold change /veh FAM211A (11726209_a_at) / RFU RGS16 (11746705_a_at) / Fold change /veh RGS16 (11746705_a_at) / RFU VCAN (11755009_s_at) / Fold change /veh VCAN (11755009_s_at) / RFU RHOB (11743442_s_at) / Fold change /veh RHOB (11743442_s_at) / RFU RGS16 (11720943_a_at) / Fold change /veh RGS16 (11720943_a_at) / RFU RGS16 (11720944_at) / Fold change /veh RGS16 (11720944_at) / RFU, VPS4B / Fold change vs veh, VPS4B / RFU, CREB1 / Fold change vs veh, CREB1 / RFU, DNAJC13 / Fold change vs veh, DNAJC13 / RFU, GNAQ / Fold change vs veh, GNAQ / RFU, CDK5R1 / Fold change vs veh, CDK5R1 / RFU, ZRANB3 / Fold change vs veh, ZRANB3 / RFU, CUL4A / Fold change vs veh, CUL4A / RFU, CCNY / Fold change vs veh, CCNY / RFU, UFL1 / Fold change vs veh, UFL1 / RFU, COG3 / Fold change vs veh, COG3 / RFU, DIAPH2 / Fold change vs veh, DIAPH2 / RFU, SKA2 / Fold change vs veh, SKA2 / RFU, AFF3 / Fold change vs veh, AFF3 / RFU, LMF1 / Fold change vs veh, LMF1 / RFU, IPO11 / Fold change vs veh, IPO11 / RFU, DFFB / Fold change vs veh, DFFB / RFU, FOXP1 / Fold change vs veh, FOXP1 / RFU, CARD8 / Fold change vs veh, CARD8 / RFU, STRN3 / Fold change vs veh, STRN3 / RFU, ADK / Fold change vs veh, ADK / RFU, RASSF2 / Fold change vs veh, RASSF2 / RFU, WIPF1 / Fold change vs veh, WIPF1 / RFU, LARP1B / Fold change vs veh, LARP1B / RFU, RASA1 / Fold change vs veh, RASA1 / RFU, RB1 / Fold change vs veh, RB1 / RFU, PPFIA1 / Fold change vs veh, PPFIA1 / RFU, MAT2A / Fold change vs veh, MAT2A / RFU, CCT5 / Fold change vs veh, CCT5 / RFU, WDR92 / Fold change vs veh, WDR92 / RFU, CUX1 / Fold change vs veh, CUX1 / RFU, TTC7A / Fold change vs veh, TTC7A / RFU, TMEM135 / Fold change vs veh, TMEM135 / RFU, DEPTOR / Fold change vs veh, DEPTOR / RFU, CPM / Fold change vs veh, CPM / RFU, DNAJB6 / Fold change vs veh, DNAJB6 / RFU, CACNA2D3 / Fold change vs veh, CACNA2D3 / RFU, DTX4 / Fold change vs veh, DTX4 / RFU, TFCP2 / Fold change vs veh, TFCP2 / RFU, GMCL1 /// GMCL1P1 / Fold change vs veh, GMCL1 /// GMCL1P1 / RFU, AEBP2 / Fold change vs veh, AEBP2 / RFU, SNHG1 /// SNORD22 /// SNORD25 /// SNORD26 /// SNORD27 /// SNORD28 /// SNORD29 /// SNORD31 / Fold change vs veh, SNHG1 /// SNORD22 /// SNORD25 /// SNORD26 /// SNORD27 /// SNORD28 /// SNORD29 /// SNORD31 / Fold change (Aza/veh), C12orf56 (ProbeSet 11735607_a_at) / Fold change (ACY-1035/veh), C12orf56 (ProbeSet 11735607_a_at) / Fold change (Aza/veh), FGFR1OP (ProbeSet 11751329_s_at) / Fold change (ACY-1035/veh), FGFR1OP (ProbeSet 11751329_s_at) / Fold change (Aza/veh), VPS36 (ProbeSet 11739960_a_at) / Fold change (ACY-1035/veh), VPS36 (ProbeSet 11739960_a_at) / RFU SYPL1 (11715823_x_at) / Fold change /veh SYPL1 (11715823_x_at) / RFU IGFBP7 (11715501_s_at) / Fold change /veh IGFBP7 (11715501_s_at) / RFU REEP3 (11722064_at) / Fold change /veh REEP3 (11722064_at) / RFU IGLL1 (11728026_x_at) / Fold change /veh IGLL1 (11728026_x_at): dose or concentration left out as unconfirmed
Settings: MV-4-11 cells, 48 hours

Q: With `Nc1ccc(-c2cccs2)cc1NC(=O)c1ccc2c(c1)cc(C1CC1)n2CCN1CCOCC1` [ACY-1035] as the molecule, how does the “RFU WNT11 (11732464_a_at)” value read?
A: Its value is 8.64 RFU.
